Assay results from article PMC11087588, “Genetic and functional diversity of β-N-acetylgalactosamine-targeting glycosidases expanded by deep-sea metagenome analysis” (Nature Communications, 2024).

How the values were obtained:
[1] = target: T1, NgaDssm (metagenome, UniProt Z9PL66MBS5); test: crystal structure of complex; format: binding; conditions: 5 mM ligand in crystallization; active site, oxazolinium intermediate analogue
T1 construct: signal peptide removed; pET-47b(+), E. coli BL21 Star (DE3); His tag cut with HRV3C; monomer
T1 sequence (Z9PL66MBS5 4-542): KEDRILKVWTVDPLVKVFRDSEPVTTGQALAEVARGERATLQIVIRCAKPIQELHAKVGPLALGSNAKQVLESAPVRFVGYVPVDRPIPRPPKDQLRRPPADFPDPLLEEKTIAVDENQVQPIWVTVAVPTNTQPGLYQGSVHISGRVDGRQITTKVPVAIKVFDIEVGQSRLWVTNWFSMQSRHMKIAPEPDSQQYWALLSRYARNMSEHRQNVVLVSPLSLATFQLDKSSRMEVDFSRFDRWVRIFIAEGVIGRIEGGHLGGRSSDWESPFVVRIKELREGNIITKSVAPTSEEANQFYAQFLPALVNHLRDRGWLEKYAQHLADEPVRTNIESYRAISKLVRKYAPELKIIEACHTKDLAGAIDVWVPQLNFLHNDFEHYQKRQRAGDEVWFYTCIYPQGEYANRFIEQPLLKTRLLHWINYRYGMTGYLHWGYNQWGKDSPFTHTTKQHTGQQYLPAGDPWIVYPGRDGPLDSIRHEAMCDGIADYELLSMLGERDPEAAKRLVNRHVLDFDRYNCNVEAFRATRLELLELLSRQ

[2] = target: T2, NgaP2 (Paenibacillus sp. TS12, UniProt A0AAT8XUB3); test: crystal structure of complex; format: binding; conditions: 5 mM ligand in crystallization; active site, oxazolinium intermediate analogue
T2 construct: cloned from genomic DNA, pET-47b(+), E. coli BL21 Star (DE3); His tag cut with HRV3C; monomer; not the GH123 NgaP of the same strain
T2 sequence (A0AAT8XUB3 4-581): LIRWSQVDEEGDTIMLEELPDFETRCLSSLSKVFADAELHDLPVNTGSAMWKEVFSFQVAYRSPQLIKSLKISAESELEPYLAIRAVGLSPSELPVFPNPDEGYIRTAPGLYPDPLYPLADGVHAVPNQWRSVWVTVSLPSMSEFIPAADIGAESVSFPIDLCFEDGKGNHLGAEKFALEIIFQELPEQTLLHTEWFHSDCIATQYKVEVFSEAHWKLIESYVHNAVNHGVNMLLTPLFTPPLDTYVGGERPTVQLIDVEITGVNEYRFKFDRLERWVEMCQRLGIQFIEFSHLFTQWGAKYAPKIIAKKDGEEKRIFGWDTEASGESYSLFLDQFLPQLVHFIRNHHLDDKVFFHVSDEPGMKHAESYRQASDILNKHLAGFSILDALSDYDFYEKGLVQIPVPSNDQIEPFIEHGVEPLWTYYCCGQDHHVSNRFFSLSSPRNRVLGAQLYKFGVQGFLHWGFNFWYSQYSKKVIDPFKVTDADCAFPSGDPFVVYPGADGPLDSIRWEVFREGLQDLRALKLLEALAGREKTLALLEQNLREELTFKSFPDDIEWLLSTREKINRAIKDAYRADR

## CC1=N[C@@H]2[C@@H](O)[C@@H](O)[C@@H](CO)O[C@@H]2S1 [GalNAc-thiazoline]
[1]
  crystal structure of complex: the structures of the NgaAt, NgaDssm, and NgaP2 complexes with GalNAc-thiazoline were successfully characterized
[2]
  crystal structure of complex: the structures of the NgaAt, NgaDssm, and NgaP2 complexes with GalNAc-thiazoline were successfully characterized
